Data reported in patent publication US20050176822A1, “Phenylacetonitrile derivatives and hair tonics and external preparations for skin containing the derivatives” (priority 2002, published 2005).

Assays:
[1] = test system: artificial bulbus pili site (human dermal papilla cells + outer root sheath cells); assay: Growth-stimulative activity test on artificial human bulbus pili cell (Alamar Blue relative respiration level); assay type: cell-based; conditions: for Judgment (cell growth-stimulative effect by relative respiration level): final concentration 10^−12 M or 10^−14 M (not said which), 2 days incubation, negative control 0.1% ethanol = 100%; for cell growth-stimulative effect on artificial bulbus pili site, in words: final concentration 10^−12 M or 10^−14 M, summary of Table 2
Protocol: Growth-Stimulative Activity Test on Artificial Human Bulbus Pili Cell
(1) Preparation of First Stage Incubated Outer Root Sheath Cell
A bulbus pili site of a hair follicle isolated from a human scalp obtained by a plastic surgery was excised and then enzymatically treated in Keratinocyte-SFM medium (GibcoBRL:11965-011) supplemented with 1000 unit/ml dispase+0.2% collagenase at 37° C. for 30 minutes. After unnecessary hair follicle mesenchymal tissue such as connective tissue root sheath was removed therefrom using the tip of a syringe needle (27G), the residue was placed in the incubating space of an incubator coated with collagen and explant culture was performed in Keratinocyte-SFM medium supplemented with an antibacterial agent. After incubation for about 1 week, the medium was exchanged upon ensuring the growth of the cells. Cells grown to be subconfluent were treated with PBS(−)+0.05% trypsin at 37° C. for 3 minutes and the reaction was stopped with an equivalent amount or more of PBS(−)+0.1% trypsin inhibitor (Sigma). The cells were collected by centrifugal separation (1200 rpm×5 min) and suspended again in PBS(−). The cells were collected by centrifugal separation (1200 rpm×5 min), thereby washing the cells. Washed cells were stored while being frozen in a liquid nitrogen using Cellbanker II (DIA-IATRON: ZCB-201(100)), thereby obtaining the first stage incubated outer root sheath cells.
(2) Preparation of First Stage Incubated Dermal Papilla Cell
From a bulbus pili site obtained by excising a hair follicle isolated from a human scalp obtained by a plastic surgery, using the tip of a syringe needle (27G), a dermal papilla site was isolated under a stereoscopic microscope and placed in the incubating space of an incubator coated with collagen. Then, explant culture was performed in 10% FBS-added DMEM medium (GibcoBRL: 11965-092) supplemented with an antibacterial agent. After incubation for about 2 week, the medium was exchanged upon ensuring the growth of the cells. Cells grown to be subconfluent were treated with PBS(−)+0.05% trypsin at 37° C. for 3 minutes and the reaction was stopped with an equivalent amount or more of PBS(−)+0.1% trypsin inhibitor (Sigma). The cells were collected by centrifugal separation (1200 rpm×5 min) and suspended again in PBS(−). The cells were collected by centrifugal separation (1200 rpm×5 min), thereby washing the cells. Washed cells were stored while being frozen in a liquid nitrogen using Cellbanker II (DIA-IATRON: ZCB-201(100)), thereby obtaining the first stage incubated dermal papilla cells.
(3) Manufacture of the Artificial Bulbus Pili Site
The first stage incubated dermal papilla cell obtained above was subcultured three times (37° C., 5% CO2) in a 10% FBS-supplemented DMEM medium (GibcoBRL: 11965-092) in a 75 cm^2 incubation flask coated with Type I collagen, and then stored while being frozen in a liquid nitrogen using Cellbanker II (DIA-IATRON: ZCB-201(100)) (DPc).
Also, the first stage incubated outer root sheath cell obtained above was subcultured three times (37° C., 5% CO2) in a Keratinocyte-SFM medium (GibcoBRL: 11965-011) in a 75 cm^2 incubation flask coated with Type I collagen, and then stored while being frozen in a liquid nitrogen using Cellbanker II (DIA-IATRON: ZCB-201(100)) (ORSc).
The DPc and ORSc stored as frozen were thawed, washed with an ice-cooled Keratinocyte-SFM medium, dispersed in Keratinocyte-SFM(+) medium (which is Keratinocyte-SFM medium supplemented with 5 ng/mL epidermal growth factor and 5 μl/mL bovine pituitary glanusi extract), and subjected to an accurate cell density measurement using a hemocytometer. Then, each cell density was adjusted at 5×10^4 cells/ml, and the cell dispersions in equal volumes were combined under cooling with ice. 80 μl aliquots of the combined cell suspending Keratinocyte-SFM(+) medium were inoculated into individual wells of Sumilon celltight spheroid 96U plate (Sumitomo Bakelit co.,), and incubated for 2 days (37° C., 5% CO2). […]

[2] = test system: immortalized human outer root sheath cell; assay: Growth-stimulative activity test on immortalized human outer root sheath cell ([3H]-thymidine uptake); assay type: cell-based; conditions: negative control (KBM+dH2O) = 100%, 2 days incubation
Protocol: Growth-Stimulative Activity Test on Immortalized Human Outer Root Sheath Cell (I) Immortalized Human Outer Root Sheath Cell Keratinocyte-SFM medium (Gibco BRL), to which a supplement attached with the medium was added, was used for culture on a dish which surface was coated with collagen. The cell was cultured until it became semiconfluent and then peeled off with 0.05% trypsin/PBS(−) and subcultured. 30-40th stage culture cells were used for study on growth. (2) Sample Preparation Each tested compound described below is dissolved with distilled water at the concentration of 10 mM and sterilized through Millipore filter. This aqueous solution was diluted with KBM at a predetermined concentration and added to the cell as a sample. The immortalized human outer root sheath cell was inoculated into a microplate (Iwaki, 24 wells) (20000 cells/well) with a growth medium KGM (Sanko Junyaku Co., Ltd., CC-3111) and incubated at 37° C. for 1 day. After each well was washed once with basal medium KBM (Sanko Junyaku Co., Ltd., CC-3101), the medium was exchanged with KBM containing each sample, and then incubated further for 2 days. [^3H]-Thymidine (Amersham Pharmacia Biotech K.K., TRK758, the final concentration: 20 μCi/ml) was added thereto and incubated at 37° C. for 3 hours. The cell was peeled off with 0.25% trypsin/PBS(−) and collected on a glass filter (Watmann, GLC). After [^3H]-thymidine that is not taken into the cell was removed by washing with distilled water, the filter was air-dried and then the radioactivity was measured by a liquid scintillation counter. […], using the uptake quantity of radioactivity in the sample-added group when that in the negative control medium (KBM+dH2O) was regarded as 100%, the immortalized human outer root sheath cell growth activity was evaluated.

SMILES: CCN(C)CCCC(C#N)(c1ccc(OC)c(OC)c1)C(C)C (stereo not drawn) [Example 4]
- Judgment (cell growth-stimulative effect by relative respiration level) [1]: +++ (Very strong effect is recognized (115% or more))
- cell growth-stimulative effect on artificial bulbus pili site, in words [1]: very strong effects

SMILES: CCCN(C)CCCC(C#N)(c1ccc(OC)c(OC)c1)C(C)C (stereo not drawn) [Example 5]
- Judgment (cell growth-stimulative effect by relative respiration level) [1]: + (Effect is recognized (105% or more, and less then 110%))

SMILES: COc1ccc(C(C#N)(CCCN(C)C(C)C)C(C)C)cc1OC (stereo not drawn) [Example 6]
- Judgment (cell growth-stimulative effect by relative respiration level) [1]: + (Effect is recognized (105% or more, and less then 110%))

SMILES: CCCCN(C)CCCC(C#N)(c1ccc(OC)c(OC)c1)C(C)C (stereo not drawn) [Example 7]
- Judgment (cell growth-stimulative effect by relative respiration level) [1]: + (Effect is recognized (105% or more, and less then 110%))

SMILES: COc1ccc(C(C#N)(CCCN(C)CC(C)C)C(C)C)cc1OC (stereo not drawn) [Example 8]
- Judgment (cell growth-stimulative effect by relative respiration level) [1]: ++ (Strong effect is recognized (110% or more, and less than 115%))
- cell growth-stimulative effect on artificial bulbus pili site, in words [1]: strong effects

SMILES: CCCN(CCC)CCCC(C#N)(c1ccc(OC)c(OC)c1)C(C)C (stereo not drawn) [Example 12]
- Judgment (cell growth-stimulative effect by relative respiration level) [1]: + (Effect is recognized (105% or more, and less then 110%))

SMILES: COc1ccc(C(C#N)(CCCN(CC(C)C)CC(C)C)C(C)C)cc1OC (stereo not drawn) [Example 15]
- Judgment (cell growth-stimulative effect by relative respiration level) [1]: + (Effect is recognized (105% or more, and less then 110%))

SMILES: COc1ccc(C(C#N)(CCCN(C)CCC(C)C)C(C)C)cc1OC.Cl (stereo not drawn) [Example 21, 2-(3′,4′-dimethoxyphenyl)-2-isopropyl-5-[N-methyl-N-(3-methylbutyl)amino]-pentanenitrile hydrochloride]
- [^3H]-thymidine uptake quantity ([2]; concentration 10^−9 M): 151%
- [^3H]-thymidine uptake quantity ([2]; concentration 10^−10 M): 143%
- [^3H]-thymidine uptake quantity ([2]; concentration 10^−11 M): 160%
- [^3H]-thymidine uptake quantity ([2]; concentration 10^−12 M): 114%
- [^3H]-thymidine uptake quantity ([2]; concentration 10^−13 M): 118%

SMILES: CNCCC[C@](C#N)(c1ccc(OC)c(OC)c1)C(C)C.Cl [Example 22, (R)-2-(3′,4′-dimethoxyphenyl)-2-isopropyl-5-methylaminopentanenitrile hydrochloride]
- [^3H]-thymidine uptake quantity ([2]; concentration 10^−9 M): 105%
- [^3H]-thymidine uptake quantity ([2]; concentration 10^−10 M): 98%
- [^3H]-thymidine uptake quantity ([2]; concentration 10^−11 M): 111%
- [^3H]-thymidine uptake quantity ([2]; concentration 10^−12 M): 135%
- [^3H]-thymidine uptake quantity ([2]; concentration 10^−13 M): 153%
- [^3H]-thymidine uptake quantity ([2]; concentration 10^−14 M): 160%

SMILES: COc1ccc([C@@](C#N)(CCCN(C)CCC(C)C)C(C)C)cc1OC.Cl [Example 23, (R)-2-(3′,4′-dimethoxyphenyl)-2-isopropyl-5-[N-methyl-N-(3-methylbutyl)amino]-pentanenitrile hydrochloride]
- [^3H]-thymidine uptake quantity ([2]; concentration 10^−9 M): 115%
- [^3H]-thymidine uptake quantity ([2]; concentration 10^−10 M): 106%
- [^3H]-thymidine uptake quantity ([2]; concentration 10^−11 M): 107%
- [^3H]-thymidine uptake quantity ([2]; concentration 10^−12 M): 117%
- [^3H]-thymidine uptake quantity ([2]; concentration 10^−13 M): 114%
- [^3H]-thymidine uptake quantity ([2]; concentration 10^−14 M): 125%

SMILES: COc1ccc(C(C#N)(CCCN2CCOCC2)C(C)C)cc1OC (stereo not drawn) [Example 24, 2-(3′,4′-dimethoxyphenyl)-2-isopropyl-5-morpholine-4″-yl-pentanenitrile]
- Judgment (cell growth-stimulative effect by relative respiration level) [1]: ± (Weak effect is recognized (102% or more, and less then 105%))

SMILES: COc1ccc(C(C#N)(CCCn2cccc2)C(C)C)cc1OC (stereo not drawn) [Example 25, 2-(3′,4′-dimethoxyphenyl)-2-isopropyl-5-pyrrole-1″-yl-pentanenitrile]
- Judgment (cell growth-stimulative effect by relative respiration level) [1]: ++ (Strong effect is recognized (110% or more, and less than 115%))
- cell growth-stimulative effect on artificial bulbus pili site, in words [1]: strong effects

SMILES: COc1ccc(C(C#N)(CCCn2ccnc2)C(C)C)cc1OC (stereo not drawn) [Example 26, 2-(3′,4′-dimethoxyphenyl)-5-imidazole-1″-yl-2-isopropylpentanenitrile]
- Judgment (cell growth-stimulative effect by relative respiration level) [1]: + (Effect is recognized (105% or more, and less then 110%))

SMILES: COc1ccc(C(C#N)(CCCn2cccn2)C(C)C)cc1OC (stereo not drawn) [Example 27, 2-(3′,4′-dimethoxyphenyl)-2-isopropyl-5-pyrazole-1″-yl-pentanenitrile]
- Judgment (cell growth-stimulative effect by relative respiration level) [1]: + (Effect is recognized (105% or more, and less then 110%))

SMILES: CCCCCN(C)CCCC(C#N)(c1ccc(OC)c(OC)c1)C(C)C (stereo not drawn) [Example 28, 2-(3′,4′-dimethoxyphenyl)-2-isopropyl-5-[N-methyl-N-(n-pentyl)amino]pentane nitrile]
- Judgment (cell growth-stimulative effect by relative respiration level) [1]: ++ (Strong effect is recognized (110% or more, and less than 115%))
- cell growth-stimulative effect on artificial bulbus pili site, in words [1]: strong effects
